From PubChem BioAssay (NCI)
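Test compounds were applied to cells in 96-well plates for 48 hours at 5 doses. Abbreviation: GI50, concentration required for 50% inhibition of growth. TGI is the concentration that stops growth completely.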

Columns and labels:
Assay in all cases: NCI tumour cell line growth inhibition, 48 h
TK-10 renal = system: TK-10 renal
EKVX NSCLC = system: EKVX NSCLC
K-562 leukemia = system: K-562 leukemia
HCT-15 colon = system: HCT-15 colon
IGROV1 ovarian = system: IGROV1 ovarian
OVCAR-3 ovarian = system: OVCAR-3 ovarian
SN12C renal = system: SN12C renal
786-0 renal = system: 786-0 renal
HL-60(TB) leukemia = system: HL-60(TB) leukemia
T-47D breast = system: T-47D breast

CC1=C(CC2C(=O)N(c3ccccc3)S(=O)(=O)NC2C)C(=O)N(c2ccccc2)S(=O)(=O)N1C (centres undefined)
TGI (TK-10 renal): > 100 µM
TGI (EKVX NSCLC): > 100 µM
TGI (K-562 leukemia): > 100 µM
TGI (HCT-15 colon): > 100 µM
TGI (IGROV1 ovarian): > 100 µM
TGI (OVCAR-3 ovarian): > 100 µM
TGI (SN12C renal): > 100 µM
TGI (786-0 renal): > 100 µM

Cc1ccccc1-n1c(N)c(-c2nc3ccccc3[nH]2)sc1=S
TGI (TK-10 renal): 85.8 µM
TGI (EKVX NSCLC): 88.5 µM
TGI (K-562 leukemia): > 100 µM
TGI (HCT-15 colon): 71.7 µM
TGI (IGROV1 ovarian): 57 µM
TGI (OVCAR-3 ovarian): 41.1 µM
TGI (SN12C renal): 56.9 µM
TGI (786-0 renal): 81.3 µM
TGI (HL-60(TB) leukemia): 66.6 µM

O=C1C=C(O)C(=Cc2c(O)cc(O)cc2O)C(O)=C1
TGI (TK-10 renal): > 100 µM
TGI (EKVX NSCLC): > 100 µM
TGI (K-562 leukemia): > 100 µM
TGI (HCT-15 colon): > 100 µM
TGI (IGROV1 ovarian): > 100 µM
TGI (OVCAR-3 ovarian): > 100 µM
TGI (SN12C renal): > 100 µM
TGI (786-0 renal): > 100 µM
TGI (HL-60(TB) leukemia): > 100 µM

O=C(NCCNCCO)c1cccc2ccc(-c3ccccc3)nc12
TGI (TK-10 renal): 6.72 µM
TGI (EKVX NSCLC): 19.7 µM
TGI (K-562 leukemia): > 100 µM
TGI (HCT-15 colon): 14.8 µM
TGI (IGROV1 ovarian): 13.2 µM
TGI (OVCAR-3 ovarian): 25.1 µM
TGI (SN12C renal): 17.6 µM
TGI (786-0 renal): 19.6 µM
TGI (HL-60(TB) leukemia): > 100 µM

COc1cc(C(=O)Nc2cc(O)c(CC=C(C)C)c(O)c2)cc2c1O[C@]1(C)CC[C@@H](O)C(C)(C)[C@H]1C2
GI50 (TK-10 renal): 2.91 µM
TGI (TK-10 renal): 42.4 µM
GI50 (EKVX NSCLC): 2.71 µM
TGI (EKVX NSCLC): 32 µM
GI50 (HCT-15 colon): 1320 nM
TGI (HCT-15 colon): 14.4 µM
GI50 (T-47D breast): 1120 nM
TGI (T-47D breast): 14.3 µM
GI50 (IGROV1 ovarian): 7.06 µM
TGI (IGROV1 ovarian): 46.3 µM
GI50 (OVCAR-3 ovarian): 3.83 µM
TGI (OVCAR-3 ovarian): 62 µM
GI50 (SN12C renal): 8.12 µM
TGI (SN12C renal): 60.2 µM
GI50 (786-0 renal): 0.0342 µM
TGI (786-0 renal): 6.85 µM

COC(=O)C(C(=O)C(=O)Nc1ccc([N+](=O)[O-])cc1)c1nc2ccc([N+](=O)[O-])cc2[nH]c1=O (centres undefined)
TGI (TK-10 renal): > 100 µM
TGI (EKVX NSCLC): > 100 µM
TGI (K-562 leukemia): > 100 µM
TGI (HCT-15 colon): > 100 µM
TGI (IGROV1 ovarian): > 100 µM
TGI (OVCAR-3 ovarian): > 100 µM
TGI (SN12C renal): > 100 µM
TGI (786-0 renal): > 100 µM
TGI (HL-60(TB) leukemia): > 100 µM

C=CCc1cc(Nc2c3ccc(Cl)cc3nc3ccc(OC)cc23)cc(CN(CC)CC)c1O
GI50 (TK-10 renal): 1.97 µM
TGI (TK-10 renal): 11.1 µM
GI50 (EKVX NSCLC): 0.661 µM
TGI (EKVX NSCLC): 11.1 µM
GI50 (K-562 leukemia): 0.615 µM
TGI (K-562 leukemia): 4.11 µM
GI50 (HCT-15 colon): 2590 nM
TGI (HCT-15 colon): 12 µM
GI50 (T-47D breast): 499 nM
TGI (T-47D breast): 4.28 µM
GI50 (IGROV1 ovarian): 2.69 µM
TGI (IGROV1 ovarian): 21.1 µM
GI50 (OVCAR-3 ovarian): 1.88 µM
TGI (OVCAR-3 ovarian): 11.5 µM
GI50 (SN12C renal): 2.03 µM
TGI (SN12C renal): 12.1 µM
GI50 (786-0 renal): 2.31 µM
TGI (786-0 renal): 10.1 µM

N[C@H](COCc1ccccc1)c1ccccc1
TGI (TK-10 renal): > 100 µM
TGI (EKVX NSCLC): > 100 µM
TGI (K-562 leukemia): 87.2 µM
TGI (HCT-15 colon): > 79.4 µM
TGI (IGROV1 ovarian): > 100 µM
TGI (OVCAR-3 ovarian): > 76.2 µM
TGI (SN12C renal): > 81.6 µM
TGI (786-0 renal): > 80.9 µM
TGI (HL-60(TB) leukemia): 30.8 µM

COc1ccc(OC(=O)CC2Cc3cc(OC)c(OC)c(OC)c3-c3ccc(SC)c(=O)cc32)cc1 (centres undefined)
TGI (TK-10 renal): > 100 µM
TGI (EKVX NSCLC): > 100 µM
TGI (K-562 leukemia): > 100 µM
TGI (HCT-15 colon): > 37.7 µM
TGI (IGROV1 ovarian): > 100 µM
TGI (SN12C renal): > 71.8 µM
TGI (786-0 renal): > 36 µM
TGI (HL-60(TB) leukemia): 2.35 µM

C/C(=N\O)c1cccc(Nc2cc(-n3ccnc3)c3ccccc3n2)c1
GI50 (TK-10 renal): 15.6 µM
TGI (TK-10 renal): 38.8 µM
GI50 (EKVX NSCLC): 13.2 µM
TGI (EKVX NSCLC): 28.1 µM
GI50 (K-562 leukemia): 18.9 µM
TGI (K-562 leukemia): 73.1 µM
GI50 (HCT-15 colon): 9260 nM
TGI (HCT-15 colon): 22.6 µM
GI50 (T-47D breast): 9320 nM
TGI (T-47D breast): 35.8 µM
GI50 (IGROV1 ovarian): 4.3 µM
TGI (IGROV1 ovarian): 20.5 µM
GI50 (OVCAR-3 ovarian): 14.7 µM
TGI (OVCAR-3 ovarian): 39.6 µM
GI50 (SN12C renal): 16.2 µM
TGI (SN12C renal): 38.2 µM
GI50 (786-0 renal): 12.2 µM
TGI (786-0 renal): 28.7 µM

N#CCN1C(=O)c2cc([N+](=O)[O-])cc3cc([N+](=O)[O-])cc(c23)C1=O
TGI (TK-10 renal): > 79.9 µM
TGI (EKVX NSCLC): 55.8 µM
TGI (K-562 leukemia): 33.4 µM
TGI (HCT-15 colon): 20.3 µM
TGI (IGROV1 ovarian): 18.3 µM
TGI (OVCAR-3 ovarian): 27.1 µM
TGI (SN12C renal): 27.9 µM
TGI (786-0 renal): 42.8 µM
TGI (HL-60(TB) leukemia): > 24.1 µM

Cc1ccc(NC(=O)C(=O)C(C(=O)/C=C/c2ccccc2)C2OC(=O)c3ccccc32)c(C)c1 (centres undefined)
TGI (TK-10 renal): > 100 µM
TGI (EKVX NSCLC): > 100 µM
TGI (K-562 leukemia): > 100 µM
TGI (HCT-15 colon): > 100 µM
TGI (IGROV1 ovarian): > 100 µM
TGI (OVCAR-3 ovarian): > 100 µM
TGI (SN12C renal): > 100 µM
TGI (786-0 renal): > 100 µM
TGI (HL-60(TB) leukemia): > 100 µM

Cc1cc(=O)c2c(O)cc3c(c2o1)CC=C(COC1OC(COC2OC(CO)C(O)C(O)C2O)C(O)C(O)C1O)CO3 (centres undefined)
TGI (TK-10 renal): > 100 µM
TGI (EKVX NSCLC): > 100 µM
TGI (K-562 leukemia): > 100 µM
TGI (HCT-15 colon): > 100 µM
TGI (IGROV1 ovarian): > 100 µM
TGI (OVCAR-3 ovarian): > 100 µM
TGI (SN12C renal): > 100 µM
TGI (786-0 renal): > 100 µM

CC(CO)(Nc1ccc([N+](=O)[O-])cc1[N+](=O)[O-])C(=O)O (centres undefined)
TGI (TK-10 renal): > 100 µM
TGI (EKVX NSCLC): 71.3 µM
TGI (K-562 leukemia): 38.6 µM
TGI (HCT-15 colon): 31.4 µM
TGI (IGROV1 ovarian): 53.7 µM
TGI (OVCAR-3 ovarian): 42 µM
TGI (SN12C renal): 39.4 µM
TGI (786-0 renal): > 100 µM
TGI (HL-60(TB) leukemia): 35.4 µM

CC1=NN(c2ccccc2)C(=O)/C1=C\c1ccc([N+](=O)[O-])cc1
TGI (TK-10 renal): > 100 µM
TGI (EKVX NSCLC): > 100 µM
TGI (K-562 leukemia): 81.4 µM
TGI (HCT-15 colon): > 100 µM
TGI (IGROV1 ovarian): 83.3 µM
TGI (SN12C renal): > 100 µM
TGI (786-0 renal): 85.8 µM
TGI (HL-60(TB) leukemia): 56.2 µM

c1ccc2c(c1)CCc1c-2n[nH]c1-c1[nH]nc2c1CCc1ccccc1-2
TGI (TK-10 renal): > 100 µM
TGI (EKVX NSCLC): > 100 µM
TGI (K-562 leukemia): > 100 µM
TGI (HCT-15 colon): > 100 µM
TGI (IGROV1 ovarian): > 100 µM
TGI (OVCAR-3 ovarian): > 100 µM
TGI (SN12C renal): > 100 µM
TGI (786-0 renal): > 100 µM
TGI (HL-60(TB) leukemia): > 100 µM

CCC(=O)Nc1ccc(N2C(=O)/C(=C/c3ccc(OC)cc3)N=C2c2ccccc2)cc1
GI50 (TK-10 renal): 22.8 µM
TGI (TK-10 renal): > 50 µM
GI50 (EKVX NSCLC): 42.9 µM
TGI (EKVX NSCLC): > 50 µM
GI50 (K-562 leukemia): 5.57 µM
TGI (K-562 leukemia): > 50 µM
GI50 (HCT-15 colon): 2770 nM
TGI (HCT-15 colon): > 50 µM
GI50 (IGROV1 ovarian): 14.1 µM
TGI (IGROV1 ovarian): > 50 µM
GI50 (OVCAR-3 ovarian): > 50 µM
TGI (OVCAR-3 ovarian): > 50 µM
GI50 (SN12C renal): 5.46 µM
TGI (SN12C renal): 15.3 µM
GI50 (786-0 renal): 16.5 µM
TGI (786-0 renal): > 50 µM
GI50 (HL-60(TB) leukemia): 23.7 µM
TGI (HL-60(TB) leukemia): > 50 µM

CCOc1ccc(NC(=O)CCc2nnc(SC)o2)cc1
TGI (TK-10 renal): > 100 µM
TGI (EKVX NSCLC): > 100 µM
TGI (K-562 leukemia): > 100 µM
TGI (HCT-15 colon): > 100 µM
TGI (IGROV1 ovarian): > 100 µM
TGI (OVCAR-3 ovarian): > 100 µM
TGI (SN12C renal): > 100 µM
TGI (786-0 renal): > 100 µM
TGI (HL-60(TB) leukemia): > 100 µM

COc1cc(C2(C)SCCCS2)cc(OC)c1OC
TGI (TK-10 renal): > 100 µM
TGI (EKVX NSCLC): > 100 µM
TGI (K-562 leukemia): > 100 µM
TGI (HCT-15 colon): > 100 µM
TGI (IGROV1 ovarian): > 100 µM
TGI (OVCAR-3 ovarian): > 100 µM
TGI (SN12C renal): > 100 µM
TGI (786-0 renal): > 100 µM
TGI (HL-60(TB) leukemia): > 100 µM

NC1=NC(=O)C(CC(=O)Nc2ccc(Cl)cc2Cl)S1 (centres undefined)
TGI (TK-10 renal): > 100 µM
TGI (EKVX NSCLC): > 100 µM
TGI (K-562 leukemia): > 100 µM
TGI (HCT-15 colon): > 100 µM
TGI (IGROV1 ovarian): > 100 µM
TGI (OVCAR-3 ovarian): > 100 µM
TGI (SN12C renal): > 100 µM
TGI (786-0 renal): > 100 µM
